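Assay format: 96-well plates, 48-hour exposure. TGI denotes the concentration required for complete inhibition of growth.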
Key:
Test in all cases: DTP human tumour cell line panel, 48 h
CAKI-1 renal = tested on: CAKI-1 renal
SN12C renal = tested on: SN12C renal
IGROV1 ovarian = tested on: IGROV1 ovarian
MDA-MB-435 = tested on: MDA-MB-435
HCT-116 colon = tested on: HCT-116 colon
OVCAR-4 ovarian = tested on: OVCAR-4 ovarian
ACHN renal = tested on: ACHN renal
HCT-15 colon = tested on: HCT-15 colon
NCI/ADR-RES ovarian = tested on: NCI/ADR-RES ovarian
COLO 205 colon = tested on: COLO 205 colon
786-0 renal = tested on: 786-0 renal
SF-539 CNS = tested on: SF-539 CNS
RPMI-8226 leukemia = tested on: RPMI-8226 leukemia
SF-268 CNS = tested on: SF-268 CNS
HT29 colon = tested on: HT29 colon
OVCAR-3 ovarian = tested on: OVCAR-3 ovarian
HOP-92 NSCLC = tested on: HOP-92 NSCLC
HOP-62 NSCLC = tested on: HOP-62 NSCLC
TK-10 renal = tested on: TK-10 renal
MDA-MB-231 breast = tested on: MDA-MB-231 breast
SNB-75 CNS = tested on: SNB-75 CNS
SNB-19 CNS = tested on: SNB-19 CNS
SK-OV-3 ovarian = tested on: SK-OV-3 ovarian
A498 renal = tested on: A498 renal
MCF7 breast = tested on: MCF7 breast
M14 melanoma = tested on: M14 melanoma
PC-3 prostate = tested on: PC-3 prostate
NCI-H522 lung = tested on: NCI-H522 lung
SK-MEL-5 melanoma = tested on: SK-MEL-5 melanoma
SF-295 CNS = tested on: SF-295 CNS
T-47D breast = tested on: T-47D breast
LOX IMVI melanoma = tested on: LOX IMVI melanoma
DU-145 prostate = tested on: DU-145 prostate
BT-549 breast = tested on: BT-549 breast
SR leukemia = tested on: SR leukemia
HS 578T breast = tested on: HS 578T breast
HL-60(TB) leukemia = tested on: HL-60(TB) leukemia
A549 NSCLC = tested on: A549 NSCLC
NCI-H23 lung = tested on: NCI-H23 lung
UACC-257 melanoma = tested on: UACC-257 melanoma
SW-620 colon = tested on: SW-620 colon
U251 CNS = tested on: U251 CNS
NCI-H460 lung = tested on: NCI-H460 lung
MDA-N = tested on: MDA-N
MOLT-4 leukemia = tested on: MOLT-4 leukemia
UO-31 renal = tested on: UO-31 renal
MALME-3M melanoma = tested on: MALME-3M melanoma
HCC-2998 colon = tested on: HCC-2998 colon
UACC-62 melanoma = tested on: UACC-62 melanoma
RXF 393 renal = tested on: RXF 393 renal
KM12 colon = tested on: KM12 colon
OVCAR-8 ovarian = tested on: OVCAR-8 ovarian
SK-MEL-2 melanoma = tested on: SK-MEL-2 melanoma
SK-MEL-28 melanoma = tested on: SK-MEL-28 melanoma
OVCAR-5 ovarian = tested on: OVCAR-5 ovarian
NCI-H226 lung = tested on: NCI-H226 lung
EKVX NSCLC = tested on: EKVX NSCLC
K-562 leukemia = tested on: K-562 leukemia
CCRF-CEM leukemia = tested on: CCRF-CEM leukemia

Measured: TGI

Cn1c(-c2ccccc2)cc2c3ccsc3c3ccsc3c21
> 100 µM: CAKI-1 renal | SN12C renal | IGROV1 ovarian | MDA-MB-435 | HCT-116 colon | OVCAR-4 ovarian | ACHN renal | HCT-15 colon | NCI/ADR-RES ovarian | COLO 205 colon | 786-0 renal | SF-539 CNS | RPMI-8226 leukemia | SF-268 CNS | HT29 colon | OVCAR-3 ovarian | HOP-92 NSCLC | HOP-62 NSCLC | TK-10 renal | MDA-MB-231 breast | SNB-75 CNS | SNB-19 CNS | SK-OV-3 ovarian | A498 renal | MCF7 breast | M14 melanoma | PC-3 prostate | NCI-H522 lung | SK-MEL-5 melanoma | SF-295 CNS | T-47D breast | LOX IMVI melanoma | DU-145 prostate | BT-549 breast | SR leukemia | HS 578T breast | HL-60(TB) leukemia | A549 NSCLC | NCI-H23 lung | UACC-257 melanoma | SW-620 colon | U251 CNS | NCI-H460 lung | MDA-N | MOLT-4 leukemia | UO-31 renal | MALME-3M melanoma | HCC-2998 colon | UACC-62 melanoma | RXF 393 renal | KM12 colon | OVCAR-8 ovarian | SK-MEL-2 melanoma | SK-MEL-28 melanoma | OVCAR-5 ovarian | NCI-H226 lung

COc1cc(OC)c(/C=C/c2cnc3ccccc3n2)c(OC)c1
> 10 µM: CAKI-1 renal | SN12C renal | IGROV1 ovarian | MDA-MB-435 | HCT-116 colon | OVCAR-4 ovarian | ACHN renal | HCT-15 colon | NCI/ADR-RES ovarian | COLO 205 colon | 786-0 renal | SF-539 CNS | RPMI-8226 leukemia | SF-268 CNS | HT29 colon | OVCAR-3 ovarian | HOP-92 NSCLC | HOP-62 NSCLC | TK-10 renal | MDA-MB-231 breast | SNB-75 CNS | SNB-19 CNS | SK-OV-3 ovarian | A498 renal | MCF7 breast | M14 melanoma | EKVX NSCLC | PC-3 prostate | NCI-H522 lung | SK-MEL-5 melanoma | SF-295 CNS | T-47D breast | LOX IMVI melanoma | DU-145 prostate | BT-549 breast | HS 578T breast | HL-60(TB) leukemia | A549 NSCLC | NCI-H23 lung | UACC-257 melanoma | SW-620 colon | U251 CNS | K-562 leukemia | NCI-H460 lung | MDA-N | MALME-3M melanoma | HCC-2998 colon | UACC-62 melanoma | RXF 393 renal | KM12 colon | OVCAR-8 ovarian | SK-MEL-2 melanoma | SK-MEL-28 melanoma | OVCAR-5 ovarian | CCRF-CEM leukemia | NCI-H226 lung
1.56 µM: UO-31 renal

c1cc(CNCCN2CCNCC2)ccn1
> 100 µM: CAKI-1 renal | SN12C renal | IGROV1 ovarian | MDA-MB-435 | HCT-116 colon | OVCAR-4 ovarian | ACHN renal | HCT-15 colon | NCI/ADR-RES ovarian | COLO 205 colon | 786-0 renal | SF-539 CNS | RPMI-8226 leukemia | SF-268 CNS | HT29 colon | OVCAR-3 ovarian | HOP-92 NSCLC | HOP-62 NSCLC | MDA-MB-231 breast | SNB-75 CNS | SNB-19 CNS | SK-OV-3 ovarian | A498 renal | MCF7 breast | M14 melanoma | EKVX NSCLC | PC-3 prostate | NCI-H522 lung | SK-MEL-5 melanoma | SF-295 CNS | T-47D breast | LOX IMVI melanoma | DU-145 prostate | BT-549 breast | SR leukemia | HS 578T breast | A549 NSCLC | NCI-H23 lung | UACC-257 melanoma | SW-620 colon | U251 CNS | K-562 leukemia | NCI-H460 lung | MDA-N | MOLT-4 leukemia | UO-31 renal | MALME-3M melanoma | UACC-62 melanoma | RXF 393 renal | KM12 colon | OVCAR-8 ovarian | SK-MEL-2 melanoma | SK-MEL-28 melanoma | OVCAR-5 ovarian | NCI-H226 lung
86.7 µM: TK-10 renal

COC(=O)CCCC(=O)O
> 100 µM: CAKI-1 renal | SN12C renal | IGROV1 ovarian | MDA-MB-435 | HCT-116 colon | OVCAR-4 ovarian | ACHN renal | HCT-15 colon | NCI/ADR-RES ovarian | COLO 205 colon | 786-0 renal | SF-268 CNS | HT29 colon | OVCAR-3 ovarian | HOP-92 NSCLC | HOP-62 NSCLC | TK-10 renal | MDA-MB-231 breast | SNB-75 CNS | SNB-19 CNS | A498 renal | MCF7 breast | M14 melanoma | EKVX NSCLC | PC-3 prostate | NCI-H522 lung | SK-MEL-5 melanoma | SF-295 CNS | T-47D breast | LOX IMVI melanoma | DU-145 prostate | BT-549 breast | SR leukemia | HS 578T breast | A549 NSCLC | NCI-H23 lung | UACC-257 melanoma | SW-620 colon | U251 CNS | NCI-H460 lung | MDA-N | MOLT-4 leukemia | UO-31 renal | MALME-3M melanoma | UACC-62 melanoma | RXF 393 renal | KM12 colon | OVCAR-8 ovarian | SK-MEL-2 melanoma | SK-MEL-28 melanoma | OVCAR-5 ovarian | NCI-H226 lung

— PubChem BioAssay (NCI)
